Literature values as cited in patent publication US20100087382A1, “Inhibitors of Hepatitis C NS3 Protease” (BOEHRINGER INGELHEIM INTERNATIONAL GMBH, priority 2007, published 2010).
Like-named read-outs stand apart in the source and are kept apart here.

How the values were obtained:
[1] = system: hepatitis C virus; conditions: 28- and 14-day clinical trials, in combination with pegylated interferon with or without ribavirin, during treatment
[2] = system: hepatitis C virus; conditions: two day clinical trial, patients infected with hepatitis C virus

| Structure (SMILES) | viral load in patients [1] | viral load in patients [2] |
| --- | --- | --- |
| CCC[C@H](NC(=O)[C@@H]1[C@H]2CCC[C@H]2CN1C(=O)[C@@H](NC(=O)[C@@H](NC(=O)c1cnccn1)C1CCCCC1)C(C)(C)C)C(=O)C(=O)NC1CC1 [VX-950] | rapidly decreased to undetectable levels |  |
| COc1ccc2c(O[C@@H]3C[C@H]4C(=O)N[C@]5(C(=O)O)C[C@H]5/C=C\CCCCC[C@H](NC(=O)OC5CCCC5)C(=O)N4C3)cc(-c3csc(NC(C)C)n3)nc2c1 [BILN 2061] |  | effective in rapidly reducing viral loads |
